Data: patent US20250382305A1 (PTC THERAPEUTICS, INC., priority 2022, published 2025)

Tests used:
[1] = system: Total ATXN3 (tATXN3) protein; assay: Endogenous Total ATXN3 (tATXN3) Protein Assay (MSD immunoassay of cell lysates); type: cell-based; conditions: average IC50, total ATXN3 protein in cell lysate after 48 h with compound (Table 1)
Summary of the method: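 Cells in DMEM/10% FBS were plated at 10,000 per well onto 7-point, 3.16-fold compound dilutions in duplicate for 48 h at 37° C, then lysed. Total ATXN3 in lysates was measured by MSD sandwich immunoassay: mouse anti-ATXN3 capture, rabbit anti-ATXN3 detection, SULFO-TAG anti-rabbit. Average IC50 was reported in star bins.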

ATXN3 pre-mRNA = assay: RT-qPCR Assay to Quantify Exon 4 Skipping in ATXN3 pre-mRNA in Cells; type: cell-based; conditions: percent exon 4 skipping in ATXN3 pre-mRNA, RT-qPCR of cell lysates; average IC50
Summary of the method: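 Cells plated at 10,000/well onto a 7-point, 3.16-fold DMSO dilution series (duplicates), incubated 24 h at 37 °C, then lysed. Exon 4 skipping measured by one-step RT-qPCR (48 °C RT, 40 cycles); IC50 interpolated from dose-response fit of percent skipping.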

Molecule	IC50 [1]	IC50 (ATXN3 pre-mRNA)
(1R,2S,3R)-2-amino-3-(5-chloro-3-methyl-7-((thiophen-2-ylmethyl)amino)thieno[3,2-b]pyridin-2-yl)cyclohexan-1-ol and (1S,2R,3S)-2-amino-3-(5-chloro-3-methyl-7-((thiophen-2-ylmethyl)amino)thieno[3,2-b]pyridin-2-yl)cyclohexan-1-ol [Compound 374]	30 to 300 nM	30 to 300 nM
2-((3R,4S)-3-aminotetrahydro-2H-pyran-4-yl)-3-bromo-5-chloro-N-(furan-2-ylmethyl)thieno[3,2-b]pyridin-7-amine and 2-((3S,4R)-3-aminotetrahydro-2H-pyran-4-yl)-3-bromo-5-chloro-N-(furan-2-ylmethyl)thieno[3,2-b]pyridin-7-amine [Compound 316]	30 to 300 nM	30 to 300 nM
2-((2R,3R)-3-aminotetrahydrofuran-2-yl)-3-bromo-5-chloro-N-(thiophen-2-ylmethyl)thieno[3,2-b]pyridin-7-amine and 2-((2S,3S)-3-aminotetrahydrofuran-2-yl)-3-bromo-5-chloro-N-(thiophen-2-ylmethyl)thieno[3,2-b]pyridin-7-amine [Compound 151]	30 to 300 nM	30 to 300 nM
N[C@H]1CCCC[C@]1(F)c1sc2c(NCc3ccco3)cc(Cl)nc2c1Cl [Compound 38, 2-((1R,2S)-2-amino-1-fluorocyclohexyl)-3,5-dichloro-N-(furan-2-ylmethyl)thieno[3,2-b]pyridin-7-amine]	30 to 300 nM	30 to 300 nM
N[C@@H]1CCC[C@@H]1c1cc2nc(Cl)cc(NCc3cccs3)c2s1 [Compound 9, 2-((1S,2R)-2-aminocyclopentyl)-5-chloro-N-(thiophen-2-ylmethyl)thieno[3,2-b]pyridin-7-amine]	> 1000 nM	300 to 1000 nM
6-((3R,4S)-3-aminotetrahydro-2H-pyran-4-yl)-2-chloro-N-(furan-2-ylmethyl)-7-vinylthieno[3,2-d]pyrimidin-4-amine and 6-((3S,4R)-3-aminotetrahydro-2H-pyran-4-yl)-2-chloro-N-(furan-2-ylmethyl)-7-vinylthieno[3,2-d]pyrimidin-4-amine [Compound 390]	300 to 1000 nM	30 to 300 nM
N[C@H]1CCCCCC[C@H]1c1sc2c(NCc3cccs3)cc(Cl)nc2c1Br [Compound 102, 2-((1R,2S)-2-aminocyclooctyl)-3-bromo-5-chloro-N-(thiophen-2-ylmethyl)thieno[3,2-b]pyridin-7-amine]	> 1000 nM	> 1000 nM

The remaining lines, values ahead:

IC50 [1]	IC50 (ATXN3 pre-mRNA)	Molecule
> 1000 nM	> 1000 nM	N[C@H]1CCC[C@@H]1c1sc2c(NCc3cccs3)cc(Cl)nc2c1-c1ccccc1 [Compound 131, 2-((1S,2S)-2-aminocyclopentyl)-5-chloro-3-phenyl-N-(thiophen-2-ylmethyl)thieno[3,2-b]pyridin-7-amine]
30 to 300 nM	30 to 300 nM	N[C@@H]1CCC[C@@H](O)[C@H]1c1sc2c(NCc3cccs3)cc(Cl)nc2c1Br [Compound 355, (1R,2S,3R)-3-amino-2-(3-bromo-5-chloro-7-((thiophen-2-ylmethyl)amino)thieno[3,2-b]pyridin-2-yl)cyclohexan-1-ol]
30 to 300 nM	30 to 300 nM	Cc1c([C@H]2CC=CC[C@@H]2N)sc2c(NCc3ccccc3F)cc(Cl)nc12 [Compound 341, 2-((1S,6S)-6-aminocyclohex-3-en-1-yl)-5-chloro-N-(2-fluorobenzyl)-3-methylthieno[3,2-b]pyridin-7-amine]
≤ 30 nM	≤ 30 nM	CC#CCNc1cc(Cl)nc2c(Br)c([C@H]3CC=CC[C@@H]3N)sc12 [Compound 230, 2-((1S,6S)-6-aminocyclohex-3-en-1-yl)-3-bromo-N-(but-2-yn-1-yl)-5-chlorothieno[3,2-b]pyridin-7-amine]
300 to 1000 nM	30 to 300 nM	N[C@H]1CC=CC[C@@H]1c1sc2c(NCc3cccs3)cc(Cl)nc2c1C#Cc1ccncc1 [Compound 395, 2-((1S,6S)-6-aminocyclohex-3-en-1-yl)-5-chloro-3-(pyridin-4-ylethynyl)-N-(thiophen-2-ylmethyl)thieno[3,2-b]pyridin-7-amine]
300 to 1000 nM	300 to 1000 nM	CN(Cc1ccccc1)c1cc(Cl)nc2c(C#CCCCO)c([C@H]3CC=CC[C@@H]3N)sc12 [Compound 453, 5-(2-((1S,6S)-6-aminocyclohex-3-en-1-yl)-7-(benzyl(methyl)amino)-5-chlorothieno[3,2-b]pyridin-3-yl)pent-4-yn-1-ol]
